Assay results as given in patent publication US12440567B2, “Aqueous antibody formulation stabilized by antioxidants for parenteral administration” (AMGEN INC., priority 2007, dated 2025).

Key:
[1] = test system: Antibody A binding to protein A; assay: Binding of Antibody A to protein A (CM5 sensor chip) after UV-B exposure of the formulation; settings: 20 mM antioxidant; pH 5.20 acetate buffer; 302 nm UV light over 24 hours
Procedure: For the examples below involving exposure to UVB radiation, each sample was exposed to UVB light (λ≈302 nm) for varying times, using a UVP 8W model UVLMS-38 lamp at 4° C. The formulations were then analyzed using size exclusion chromatography high pressure liquid chromatography (SEC-HPLC). Aggregation (measured via SEC-HPLC analysis) and binding (measured using CM5 gold sensor chips) were measured to determine the effect of the antioxidant on aggregation and bioactivity of the therapeutic protein. The binding activity of therapeutic protein to a ligand (e.g. to an antibody or binding partner, or, in cases where the therapeutic was an antibody, binding activity to the specific target antigen or to protein A) was determined as follows. […] The therapeutic protein-binding ligand of interest was injected until the desired immobilization level was achieved (above 5000 response units). Three different therapeutic protein-binding ligands were measured—Antibody A's target antigen, Protein A, and D11 (an antibody that binds to erythropoietin). […] The remaining activated groups were blocked with 1.0 M ethanolamine-HCl, pH 8.5. […] Various UV-stressed antibody formulations were also diluted in HBS-EP buffer (pH 7.4) to a concentration within the standard curve region, and injected to quantitate the loss of bioactivity to its respective ligand-binding partner.

EPO binding to D11 [2] = assay: Binding of EPO to D11 monoclonal antibody after UV-B exposure of the formulation; set-up: species or system human
Procedure: For the examples below involving exposure to UVB radiation, each sample was exposed to UVB light (λ≈302 nm) for varying times, using a UVP 8W model UVLMS-38 lamp at 4° C. The formulations were then analyzed using size exclusion chromatography high pressure liquid chromatography (SEC-HPLC). Aggregation (measured via SEC-HPLC analysis) and binding (measured using CM5 gold sensor chips) were measured to determine the effect of the antioxidant on aggregation and bioactivity of the therapeutic protein. The binding activity of therapeutic protein to a ligand (e.g. to an antibody or binding partner, or, in cases where the therapeutic was an antibody, binding activity to the specific target antigen or to protein A) was determined as follows. […] The therapeutic protein-binding ligand of interest was injected until the desired immobilization level was achieved (above 5000 response units). Three different therapeutic protein-binding ligands were measured—Antibody A's target antigen, Protein A, and D11 (an antibody that binds to erythropoietin). […] The remaining activated groups were blocked with 1.0 M ethanolamine-HCl, pH 8.5. A standard curve was prepared by using native forms of the therapeutic protein of interest. Native forms of the therapeutic protein were diluted in HBS-EP buffer (pH 7.4) to concentrations between 1 and 5 μg/mL, and then injected on the column, prepared as described above to obtain a standard curve. At the end of each sample run, regeneration buffer was used to wash away any bound therapeutic protein in preparation for subsequent injections. Various UV-stressed antibody formulations were also diluted in HBS-EP buffer (pH 7.4) to a concentration within the standard curve region, and injected to quantitate the loss of bioactivity to its respective ligand-binding partner. […] The protein was exposed to the same conditions as Antibody A and Antibody B for up to 24 hours.

[3] = test system: anti-streptavidin mAb (IgG2); assay: SEC-HPLC aggregation of anti-streptavidin (IgG2) after UV-B exposure; format: physicochemical; settings: 20 mM antioxidant; 1 mg/mL anti-streptavidin, 10 mM sodium acetate, 5% sorbitol, pH 5.00; 302 nm UV-B 24 hours
Procedure: (§1) The SEC-HPLC conditions were as follows: a G3000 TOSOH SWXL column was used and the flowrate was set at 0.5 mL/min. […] For both IgG1 and IgG2, the mobile phase was 80 mM sodium phosphate, 300 mM sodium perchlorate, 10% isopropanol, pH 7.2, and each sample was run for 45 minutes.
(§2) For FIG. 5, the anti-streptavidin formulation was prepared having the following characteristics: 1 mg/mL anti-streptavidin mAb (IgG2), 10 mM sodium acetate, 5% sorbitol, and pH 5.00. For FIG. 6, the Antibody A formulation was prepared having the following characteristics: 1 mg/mL Antibody A (IgG1), 10 mM sodium acetate, 9% sucrose, and pH 5.20.

Antibody A (IgG1) = assay: SEC-HPLC aggregation of Antibody A (IgG1) after UV-B exposure; format: physicochemical; settings: 20 mM antioxidant; 1 mg/mL Antibody A, 10 mM sodium acetate, 9% sucrose, pH 5.20; 302 nm UV-B 24 hours
Procedure: as §1, §2

[4] = test system: anti-streptavidin (IgG2 antibody); assay: Thermal aggregation of anti-streptavidin at 52° C. for 10 days; format: physicochemical; settings: 10 mM antioxidant; 50 mM sodium acetate pH 5.00; no UV
Procedure: The SEC-HPLC conditions were as follows: a G3000 TOSOH SWXL column was used and the flowrate was set at 0.5 mL/min. […] Anti-streptavidin was formulated in 50 mM sodium acetate at pH 5.00. These formulations were not exposed to UV radiation but assessed on their thermal stability.

EPO binding to D11 [5] = assay: EPO binding activity after metal catalyzed oxidation (Fe-EDTA, H2O2, ascorbate); set-up: species or system human; settings: 5 mM ferulic acid; EPO 336 μg/mL in HBS pH 7.0; 0.2 mM Fe-EDTA, 0.3% H2O2, 1 mM ascorbate, 2 hours 37° C.
Procedure: The binding activity of therapeutic protein to a ligand (e.g. to an antibody or binding partner, or, in cases where the therapeutic was an antibody, binding activity to the specific target antigen or to protein A) was determined as follows. Carboxymethyl-dextran chains on a CM5 gold sensor chip were activated with 1-ethyl-3-(3-dimethylaminopropyl)-carbodiimide HCl (EDC) and N-hydroxysuccinimide (NETS) at a flow rate of 5 μL/min. The therapeutic protein-binding ligand of interest was injected until the desired immobilization level was achieved (above 5000 response units). Three different therapeutic protein-binding ligands were measured—Antibody A's target antigen, Protein A, and D11 (an antibody that binds to erythropoietin). For introduction of Antibody A's target antigen to the column, an 80 μg injection of the antigen, diluted in 10 mM Na Acetate pH 4.0 was introduced; for Protein A, a 4 μg injection of Protein A, diluted in 10 mM Na Acetate pH 4.5, was introduced; for D11, a […] injection of D11, diluted in 10 mM Na Acetate pH 5.0 was introduced. The remaining activated groups were blocked with 1.0 M ethanolamine-HCl, pH 8.5.
A standard curve was prepared by using native forms of the therapeutic protein of interest. […]

## COc1cc(/C=C/C(=O)O)ccc1O [ferulic acid]
[1]
  binding of Antibody A to protein A after UV exposure: preserved
EPO binding to D11 [2]; 0.1 mM antioxidant, UV-B up to 24 hours
  EPO binding activity to D11 during UV-B exposure: able to protect the EPO from degradation and preserve its binding activity
EPO binding to D11 [2]; 20 mM antioxidant, up to 24 hours UV
  binding of EPO to D11 mAb after UV light exposure: able to significantly preserve
[3]
  amount of aggregate of anti-streptavidin (SEC-HPLC): dramatically reduced
Antibody A (IgG1)
  amount of aggregate of Antibody A (SEC-HPLC): dramatically reduced
[4]
  aggregation of anti-streptavidin after 10 days at 52° C.: contributed to the aggregation of anti-streptavidin
EPO binding to D11 [5]
  EPO binding activity preserved: 100%
